Measurements reported in US10800741B2 (ANCUREALL PHARMACEUTICAL (SHANGHAI) CO., LTD., priority 2017, dated 2020).
Like-named read-outs stand apart in the source and are kept apart here.

Tests used:
Hep3B2 (FGFR3/4+++) = test: In vitro growth inhibition of Hep3B2 tumor cells (MTT/CCK8); type: cell-based, Human; details: Homo sapiens, Hep3B; in vitro growth inhibition (or induction of apoptosis), cells cultured 3 to 5 days, MTT (CCK8); read-out: IC50 Hep3B2 (FGFR3/4+++)
Cal-120 = test: In vitro growth inhibition of Cal-120 cells; type: cell-based; details: Homo sapiens, FGFR1 amp
Procedure: (§1) Adherent cells were digested with 0.25% trypsin-EDTA (Gibco). Suspension culture cells were collected by centrifugation (1700 rpm, 3 minutes). The supernatant was discarded and the cells were counted. According to each cell growth cycle, different concentrations of cells were prepared (5˜10×10^4 cells per ml), and inoculated to 96-well plates (Corning), with 100 μl per well, and incubated overnight at 37° C., 5% CO2. The next day, the test compound was added to the cultured cells (2 wells in parallel). The final concentration of the solvent was less than 1/1,000. The cells were further cultured for 3 to 5 days and assayed by MTT.
(§2) The MTT test reagent was a Dojindo CCK8 kit and the Microplate Reader was a THERMO […] FC instrument.
(§3) The adherent cells were taken out from the cell culture medium, and immediately added to a freshly prepared complete medium containing 10% CCK8 (5% FBS), 100 ul per hole. The suspended cells were directly added to a CCK8 reagent until reaching a final concentration of 10% and cultured for 1 to 4 hours. When a dark yellow color could be observed in the solvent control wells, the absorbance value at OD450 nm was measured and the cell growth rate was calculated according to the following formula: Cell Growth Rate (%)=100×(T−T0)/(C−T0)
(§4) T=optical density of drug-treated cell wells−optical density of blank control wells; T0=optical density of cell wells before drug treatment−optical density of blank control wells; C=optical density of solvent control wells−optical density of blank control wells. […] The experiments were repeated 1 to 3 times and a statistical analysis of data was conducted.
(§5) Mutations in the FGFR1-4 gene often occur in different types of cancer patients. In order to test the growth inhibition activity of the present compound against tumor cells expressing different FGFR variants, tumor cell lines expressing representative FGFR1-4 were selected for further determining the activity of compounds 25, 66, 38 and 95 of the present invention. BGJ398, a selective inhibitor of FGFR1-4, was used as the control compound. The specific test method is the same as test example 1.

MFM-223 = test: In vitro growth inhibition of MFM-223 cells; type: cell-based; details: Homo sapiens, PI3KCA H1047R, FGFR1 amp, FGFR2 amp
Procedure: as §1, §2, §3, §4, §5

MDA-MB-453 = test: In vitro growth inhibition of MDA-MB-453 cells; type: cell-based; details: Homo sapiens, PI3KCA H1047R, FGFR4+++/Y367C
Procedure: as §1, §2, §3, §4, §5

Hep G2 = test: In vitro growth inhibition of Hep G2 cells; type: cell-based; details: Homo sapiens, HepG2, FGFR3+++, FGFR4 +++
Procedure: as §1, §2, §3, §4, §5

RS4:11 = test: In vitro growth inhibition of FLT3 wild type overexpressing cells RS4:11; type: cell-based; details: Homo sapiens, cells over expressing FLT3 wild-type
Procedure: as §1, §2, §3, §4
(§6) The present compounds which has a high growth inhibition activity on tumor cells positive expressing FLT3-ITD were selected for the determination of IC50 concentration on FLT3 wild tyoverexpressing cells RS4:11 and FLT3 wild-type normal expressing cells Jurkat. The specific test method is the same as that of test example 1.

Jurkat = test: In vitro growth inhibition of FLT3 wild-type normal expressing cells Jurkat; type: cell-based; details: Homo sapiens, cells normally expressing FLT3 wild-type
Procedure: as §1, §2, §3, §4, §6

protein kinases [1] = biological target: T1, protein kinases (Homo sapiens, UniProt P00519, Q252H); test: KINOMEscan in vitro binding to 468 labeled protein kinases; details: read-out: Test compound/solvent control (%); for remaining binding at 0.001 µM: 1 nM; for remaining binding at 0.01 µM: 10 nM; for remaining binding at 1 µM: 1000 nM
T1 construct: purchased Discovery X company (USA), KINOMEscan screening platform
Procedure: (§7) Test Example 6 Determination of Binding Affinity of the Present Compounds on Protein Kinases In Vitro
(§8) KINOMEscan screening platform of Discovery X company (USA) was used to identify the binding targets of the present compounds to protein kinases. Compound 66 of the present invention was dissolved in DMSO (Sigma Aldrich) at concentrations of 1000 nM, 10 nM and 1 nM, and then was subjected to in vitro binding reaction with 468 labeled protein kinases. Two samples were taken in parallel for each assay sample.
(§9) The lower the percentage of the test compound to the solvent control, the stronger the binding affinity of the test compound to the protein kinase in vitro.

protein kinases [2] = biological target: T2, protein kinases (Homo sapiens, UniProt P00533, L861Q); test: as above; details: EGFR(L861Q)
T2 construct: purchased Discovery X company (USA), KINOMEscan screening platform
Procedure: as §7, §8, §9

protein kinases [3] = biological target: T3, protein kinases (Homo sapiens, UniProt P22607, G697C); test: as above; details: FGFR3(G697C), read-out: Test compound/solvent control (%)
T3 construct: purchased Discovery X company (USA), KINOMEscan screening platform
Procedure: as §7, §8, §9

protein kinases [4] = biological target: T4, protein kinases (Homo sapiens, UniProt Q02763); test: as above; details: TIE2, read-out: Test compound/solvent control (%)
T4 construct: purchased Discovery X company (USA), KINOMEscan screening platform
Procedure: as §7, §8, §9

T2 sequence (P00533 25-1210 L861Q): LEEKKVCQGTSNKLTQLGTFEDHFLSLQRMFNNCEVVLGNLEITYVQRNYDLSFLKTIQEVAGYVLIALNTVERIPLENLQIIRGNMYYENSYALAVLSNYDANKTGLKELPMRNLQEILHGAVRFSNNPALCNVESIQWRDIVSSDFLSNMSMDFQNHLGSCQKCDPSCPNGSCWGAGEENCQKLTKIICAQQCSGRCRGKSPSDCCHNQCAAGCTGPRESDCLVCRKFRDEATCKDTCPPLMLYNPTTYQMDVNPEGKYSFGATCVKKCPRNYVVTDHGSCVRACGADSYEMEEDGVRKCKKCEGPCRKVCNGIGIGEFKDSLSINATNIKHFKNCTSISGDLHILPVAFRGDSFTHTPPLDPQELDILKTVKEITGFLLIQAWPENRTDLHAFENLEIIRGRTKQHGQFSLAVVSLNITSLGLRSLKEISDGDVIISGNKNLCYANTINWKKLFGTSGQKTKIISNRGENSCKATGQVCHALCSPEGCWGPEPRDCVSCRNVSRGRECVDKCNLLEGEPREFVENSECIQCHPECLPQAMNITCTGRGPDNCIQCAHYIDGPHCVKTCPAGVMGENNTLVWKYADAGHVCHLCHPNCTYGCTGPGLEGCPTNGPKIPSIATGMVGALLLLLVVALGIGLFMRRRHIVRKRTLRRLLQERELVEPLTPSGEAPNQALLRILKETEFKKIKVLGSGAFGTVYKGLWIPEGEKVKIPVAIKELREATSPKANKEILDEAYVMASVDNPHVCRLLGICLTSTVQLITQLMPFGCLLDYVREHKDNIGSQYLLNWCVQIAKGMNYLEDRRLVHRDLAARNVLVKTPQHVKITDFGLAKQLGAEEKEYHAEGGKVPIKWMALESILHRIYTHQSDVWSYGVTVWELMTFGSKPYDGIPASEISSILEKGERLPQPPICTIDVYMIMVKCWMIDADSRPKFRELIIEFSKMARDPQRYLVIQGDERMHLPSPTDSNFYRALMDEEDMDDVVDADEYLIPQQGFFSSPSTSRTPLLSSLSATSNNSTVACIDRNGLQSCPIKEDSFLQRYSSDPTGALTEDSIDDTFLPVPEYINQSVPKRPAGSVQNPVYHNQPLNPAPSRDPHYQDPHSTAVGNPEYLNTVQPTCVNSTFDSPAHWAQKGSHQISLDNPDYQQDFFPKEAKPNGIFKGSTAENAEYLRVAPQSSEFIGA
T4 sequence (Q02763 23-1124): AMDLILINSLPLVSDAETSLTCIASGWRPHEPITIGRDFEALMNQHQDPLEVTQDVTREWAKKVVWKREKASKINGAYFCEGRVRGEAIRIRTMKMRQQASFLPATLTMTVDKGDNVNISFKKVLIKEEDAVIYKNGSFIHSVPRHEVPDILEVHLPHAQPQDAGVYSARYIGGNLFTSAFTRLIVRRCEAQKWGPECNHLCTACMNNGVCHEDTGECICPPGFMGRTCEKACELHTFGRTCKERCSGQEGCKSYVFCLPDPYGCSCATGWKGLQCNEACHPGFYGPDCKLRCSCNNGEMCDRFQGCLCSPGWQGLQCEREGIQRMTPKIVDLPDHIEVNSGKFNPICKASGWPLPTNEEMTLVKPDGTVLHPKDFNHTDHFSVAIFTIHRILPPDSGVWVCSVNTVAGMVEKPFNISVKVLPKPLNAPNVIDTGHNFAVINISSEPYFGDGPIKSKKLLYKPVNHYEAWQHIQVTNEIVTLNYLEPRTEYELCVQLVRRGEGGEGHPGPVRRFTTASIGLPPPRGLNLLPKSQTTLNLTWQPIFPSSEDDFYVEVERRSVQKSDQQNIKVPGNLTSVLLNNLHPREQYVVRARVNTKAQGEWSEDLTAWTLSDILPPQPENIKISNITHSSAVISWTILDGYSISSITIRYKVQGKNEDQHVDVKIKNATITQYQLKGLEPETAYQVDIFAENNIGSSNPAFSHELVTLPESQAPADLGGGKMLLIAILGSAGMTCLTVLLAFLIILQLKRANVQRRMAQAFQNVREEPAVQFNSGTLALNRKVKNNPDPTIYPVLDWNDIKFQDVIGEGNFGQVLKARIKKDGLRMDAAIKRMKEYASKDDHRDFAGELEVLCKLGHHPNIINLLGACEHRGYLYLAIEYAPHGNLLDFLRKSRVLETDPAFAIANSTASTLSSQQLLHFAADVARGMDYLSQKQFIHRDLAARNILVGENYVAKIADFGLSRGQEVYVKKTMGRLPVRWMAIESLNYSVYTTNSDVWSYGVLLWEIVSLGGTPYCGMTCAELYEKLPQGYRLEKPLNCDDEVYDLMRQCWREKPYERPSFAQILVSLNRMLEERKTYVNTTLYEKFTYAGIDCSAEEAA
T3 sequence (P22607 23-806 G697C): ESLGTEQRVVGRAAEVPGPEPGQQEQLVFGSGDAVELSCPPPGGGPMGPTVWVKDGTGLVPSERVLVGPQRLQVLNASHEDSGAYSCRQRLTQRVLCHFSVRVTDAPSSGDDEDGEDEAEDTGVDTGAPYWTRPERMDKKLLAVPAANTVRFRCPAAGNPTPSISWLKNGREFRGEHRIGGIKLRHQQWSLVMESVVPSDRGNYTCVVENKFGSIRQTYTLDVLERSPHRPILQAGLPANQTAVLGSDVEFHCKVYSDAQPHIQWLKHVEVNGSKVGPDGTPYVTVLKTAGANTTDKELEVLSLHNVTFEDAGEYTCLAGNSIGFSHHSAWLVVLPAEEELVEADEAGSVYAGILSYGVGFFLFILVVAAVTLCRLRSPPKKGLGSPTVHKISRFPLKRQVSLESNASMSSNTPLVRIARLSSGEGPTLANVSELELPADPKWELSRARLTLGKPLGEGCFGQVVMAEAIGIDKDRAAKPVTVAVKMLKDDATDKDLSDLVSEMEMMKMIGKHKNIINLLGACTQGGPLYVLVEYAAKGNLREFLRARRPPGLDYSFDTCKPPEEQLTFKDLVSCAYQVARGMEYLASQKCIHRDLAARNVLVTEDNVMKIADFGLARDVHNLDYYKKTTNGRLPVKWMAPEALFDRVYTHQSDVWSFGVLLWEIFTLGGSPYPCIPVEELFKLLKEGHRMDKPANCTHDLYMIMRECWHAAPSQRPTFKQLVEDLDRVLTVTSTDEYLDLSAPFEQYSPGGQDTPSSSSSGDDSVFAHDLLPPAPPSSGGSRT

Row | Compound | IC50 (Hep3B2 (FGFR3/4+++)) [µM] | IC50 (Cal-120) [µM] | IC50 (MFM-223) [µM] | IC50 (MDA-MB-453) [µM] | IC50 (Hep G2) [µM] | IC50 (RS4:11) [µM] | IC50 (Jurkat) [µM] | other results
1 | COc1cc2nccc(Oc3ccc(NC(=O)Nc4cc(C(C)(C)C)nn4C)c(Cl)c3Cl)c2cc1C(N)=O [Compound 38, 4-{4-[3-(5-tert-butyl-2-methyl-2H-pyrazol-3-yl)-ureido]-2,3-dichloro-phenoxy}-7-methoxyquinolin-6-carboxamide] | 0.00424 | 0.00977 | 0.0149 | 0.0198 | 0.119 | 0.0658 | 0.202 | 
2 | COCCOc1cc2nccc(Oc3ccc(NC(=O)Nc4cc(C(C)(C)C)n[nH]4)c(Cl)c3)c2cc1NC(C)=O [Compound 66, N-[4-{4-[3-(5-tert-butyl-2H-pyrazol-3-yl)-ureido]-3-chloro-phenoxy}-7-(2-methoxy-ethoxy)-quinolin-6-yl]-acetamide] | 0.00606 | 0.00977 | 0.0179 | 0.0193 | 0.0791 | 0.523 | 0.462 | remaining binding at 0.001 µM (protein kinases [1]; ABL1(Q252H)-phosphorylated): 71%; remaining binding at 0.01 µM (protein kinases [1]; ABL1(Q252H)-phosphorylated): 12%; remaining binding at 1 µM (protein kinases [1]; ABL1(Q252H)-phosphorylated): 0.15%; remaining binding at 0.001 µM (protein kinases [1]; ABL1(Q252H)-unphosphorylated): 48%; remaining binding at 0.01 µM (protein kinases [1]; ABL1(Q252H)-unphosphorylated): 7.8%; remaining binding at 1 µM (protein kinases [1]; ABL1(Q252H)-unphosphorylated): 0%; Test compound/solvent control (%) (protein kinases [2]; 1 nM): 73%; Test compound/solvent control (%) (protein kinases [2]; 10 nM): 9.5%; Test compound/solvent control (%) (protein kinases [2]; 1000 nM): 0%; remaining binding at 0.001 µM (protein kinases [3]; 1 nM): 81%; remaining binding at 0.01 µM (protein kinases [3]; 10 nM): 54%; remaining binding at 1 µM (protein kinases [3]; 1000 nM): 0.05%; remaining binding at 0.001 µM (protein kinases [4]; 1 nM): 59%; remaining binding at 0.01 µM (protein kinases [4]; 10 nM): 3.8%; remaining binding at 1 µM (protein kinases [4]; 1000 nM): 0.95%
3 | CN1CCN(CCCOc2cc3nccc(Oc4ccc(NC(=O)Nc5cc(C(C)(C)C)n[nH]5)c(Cl)c4Cl)c3cc2C(N)=O)CC1 [Compound 95] | 0.00852 | 0.00977 | 0.0326 | 0.0492 | 0.128 |  |  | 
